IC50 data for twelve compounds are collected here from patent US20240409573A1, “CALICHEAMICIN DERIVATIVES AND ANTIBODY DRUG CONJUGATES THEREOF” (priority 2017, published 2024).

Structures are written as SMILES. pIC50: −log10 of the molar value.

Assay type in all cases: cell-based
The subject of experiment [1] is Raji cells, CD33-non-expressing. Description: In vitro cell assay, cell viability by MTS, Raji. The note with it: Homo sapiens, 96 h, read-out: Average IC50, Raji. The method, then:
(§1) Her2-Target expressing (BT474 (breast cancer), N87 (gastric cancer), MDA-MB-361-DYT2 (breast cancer)) or Her2-non-expressing (MDA-MB-468, HT29) cells, or 0033-target expressing HL60, HEL92.1.7, NB4, TF-1 or 0033-non-expressing (Raji) cells were seeded in 96-well cell culture plates for 24 hours before treatment. Cells were treated with 3-fold serially diluted antibody-drug conjugates or free compounds (i.e., no antibody conjugated to the drug) in duplicate at 10 concentrations. Cell viability was determined by CellTiter 96® AQueous One Solution Cell Proliferation MTS Assay (Promega, Madison WI) 96 hours after treatment. Relative cell viability was determined as percentage of untreated control. IC50 values were calculated using a four parameter logistic model #203 with XLfit v4.2 (IDBS, Guildford, Surry, UK). Results are shown below in Table 3 (for payloads), Table 4 (for Herceptin conjugates), and Table 5 (for CD33 conjugates).

Experiment [2] deals with N87 (gastric cancer) cells, Her2-target expressing. Description: In vitro cell assay, cell viability by MTS, N87. Particulars: 96 h, read-out: Average IC50, N87. The method, then:
as §1

In experiment [3] the test system is NB4 cells, CD33-target expressing. Description: In vitro cell assay, cell viability by MTS, NB4. The note with it: Homo sapiens, NB-4, 96 h, read-out: Average IC50, NB4. The method, then:
as §1

The test system of experiment [4] is HEL92.1.7 cells, CD33-target expressing. Description: In vitro cell assay, cell viability by MTS, HEL92.1.7. The note with it: Homo sapiens, HEL 92.1.7, 96 h, read-out: Average IC50, HEL92.1.7. The protocol: as §1
Experiment [5] deals with MDA-MB-361-DYT2 (breast cancer) cells, Her2-target expressing. Description: In vitro cell assay, cell viability by MTS, MDA-MB-361-DYT2. Particulars: 96 h, read-out: Average IC50, MDA-MB-361-DYT2. The protocol:
as §1

For experiment [6], the system named is TF-1 cells, CD33-target expressing. Description: In vitro cell assay, cell viability by MTS, TF-1. The note with it: Homo sapiens, TF-1, 96 h, read-out: Average IC50, TF-1. The method, then:
as §1

Experiment [7] has as its system HT29 cells, Her2-non-expressing. Description: In vitro cell assay, cell viability by MTS, HT29. The note with it: Homo sapiens, HT-29, 96 h, read-out: Average IC50, HT29. The protocol: as §1
The subject of experiment [8] is HL60 cells, CD33-target expressing. Description: In vitro cell assay, cell viability by MTS, HL60. The note with it: Homo sapiens, HL-60, 96 h, read-out: Average IC50, HL-60. The method, then:
as §1

In the case of `CCN[C@H]1CO[C@@H](O[C@@H]2C(O)[C@H](NO[C@H]3C[C@H](O)[C@H](SC(=O)c4c(C)c(I)c(O[C@@H]5O[C@@H](C)[C@H](O)[C@@H](OC)[C@H]5O)c(OC)c4OC)[C@@H](C)O3)[C@@H](C)O[C@H]2O[C@H]2C#C/C=C\C#C[C@]3(O)CC(=O)C(NC(=O)OC)=C2/C3=C\CSSC(C)(C)CCC(=O)NCCCC[C@H](N)C(=O)O)C[C@@H]1OC` (stereo in doubt) [Example P43], the negative logarithm of the IC50 (pIC50) (commonly −log10 of the IC50, conventionally taken in molar units) in experiment [1] is 8.54; in experiment [2] it was 8.91; in experiment [3], 9.29; in experiment [4], 8.31; in experiment [5] it was 8.19; in experiment [6], 8.05. In addition, the pIC50 was 8.50 in experiment [7] and 8.87 in experiment [8].

`CCN[C@H]1CO[C@@H](O[C@@H]2C(O)[C@H](NO[C@H]3C[C@H](O)[C@H](SC(=O)c4c(C)c(I)c(O[C@@H]5O[C@@H](C)[C@H](O)[C@@H](OC)[C@H]5O)c(OC)c4OC)[C@@H](C)O3)[C@@H](C)O[C@H]2O[C@H]2C#C/C=C\C#C[C@]3(O)CC(=O)C(NC(=O)OC)=C2/C3=C\CSSc2ncccc2C(=O)O)C[C@@H]1OC` (stereo in doubt) [Example P46]: the negative-log IC50 (pIC50) in experiment [1] is 10.41; in experiment [2] it was 9.26; in experiment [3] it was 10.70; in experiment [4] it was 10.34; in experiment [5], 8.55; in experiment [6], 9.75. In addition, the pIC50 in experiment [7] is 9.11; in experiment [8] it was 10.60.

For `CCN[C@H]1CO[C@@H](O[C@@H]2C(O)[C@H](NO[C@H]3C[C@H](O)[C@H](SC(=O)c4c(C)c(I)c(O[C@@H]5O[C@@H](C)[C@H](O)[C@@H](OC)[C@H]5O)c(OC)c4OC)[C@@H](C)O3)[C@@H](C)O[C@H]2O[C@H]2C#C/C=C\C#C[C@]3(O)CC(=O)C(NC(=O)OC)=C2/C3=C\CSS[C@H](C)CO)C[C@@H]1OC` (stereo in doubt) [Example P47], the pIC50 in experiment [1] was 10.30; in experiment [2], 8.73; in experiment [3] it was 10.40; in experiment [4], 9.85; in experiment [5] it was 8.18; in experiment [6], 9.13. Also, the pIC50 in experiment [7] is 8.85; in experiment [8], 10.27.

Turning to `CCN[C@H]1CO[C@@H](O[C@H]2[C@H](O[C@H]3C#C/C=C\C#C[C@]4(O)CC(=O)C(NC(=O)OC)=C3/C4=C\CSSC(C)C)O[C@H](C)[C@@H](NO[C@H]3C[C@H](O)[C@H](SC(=O)c4c(C)c(I)c(O[C@@H]5O[C@@H](C)[C@H](O)[C@@H](OC)[C@H]5O)c(OC)c4OC)[C@@H](C)O3)[C@@H]2O)C[C@@H]1OC` [Example P1], the pIC50 was 11.22 in experiment [1]; 11.15 in experiment [2]; 11.52 in experiment [3]; 10.55 in experiment [4]; 10.68 in experiment [5]; 10.15 in experiment [6]. The pIC50 in experiment [7] and in experiment [8] was 11.52 throughout.

On to `CCN[C@H]1CO[C@@H](O[C@H]2[C@H](O[C@H]3C#C/C=C\C#C[C@]4(O)CC(=O)C(NC(=O)OC)=C3/C4=C\CSSc3ccccc3C(=O)O)O[C@H](C)[C@@H](NO[C@H]3C[C@H](O)[C@H](SC(=O)c4c(C)c(I)c(O[C@@H]5O[C@@H](C)[C@H](O)[C@@H](OC)[C@H]5O)c(OC)c4OC)[C@@H](C)O3)[C@@H]2O)C[C@@H]1OC` [Example P3], for which the negative-log IC50 (pIC50) was 9.42 in experiment [1]; 9.51 in experiment [2]; 10.09 in experiment [3]; 9.43 in experiment [4]; 8.76 in experiment [5]; 8.78 in experiment [6]. The pIC50 in experiment [7] is 9.16; in experiment [8] it was 9.83.

On to `CCN[C@H]1CO[C@@H](O[C@H]2[C@H](O[C@H]3C#C/C=C\C#C[C@]4(O)CC(=O)C(NC(=O)OC)=C3/C4=C\CSSC(CC(=O)O)C(=O)O)O[C@H](C)[C@@H](NO[C@H]3C[C@H](O)[C@H](SC(=O)c4c(C)c(I)c(O[C@@H]5O[C@@H](C)[C@H](O)[C@@H](OC)[C@H]5O)c(OC)c4OC)[C@@H](C)O3)[C@@H]2O)C[C@@H]1OC` (some centres unmarked) [Example P6], for which the pIC50 in experiment [1] was 8.92; in experiment [2], 8.91; in experiment [3], 9.31; in experiment [5], 8.87; in experiment [6] it was 8.23; in experiment [7] it was 8.94. For the same compound, the negative logarithm of the IC50 (pIC50) in experiment [8] was 9.25.

With `CCN[C@H]1CO[C@@H](O[C@H]2[C@H](O[C@H]3C#C/C=C\C#C[C@]4(O)CC(=O)C(NC(=O)OC)=C3/C4=C\CSSC(C)(C)CC(=O)N(C)C)O[C@H](C)[C@@H](NO[C@H]3C[C@H](O)[C@H](SC(=O)c4c(C)c(I)c(O[C@@H]5O[C@@H](C)[C@H](O)[C@@H](OC)[C@H]5O)c(OC)c4OC)[C@@H](C)O3)[C@@H]2O)C[C@@H]1OC` [Example P31], the pIC50 was 11.10 in experiment [1]; 10.29 in experiment [2]; 10.49 in experiment [5]; 10.08 in experiment [6]; 11.00 in experiment [7]; 10.96 in experiment [8].

For `CCN[C@H]1CO[C@@H](O[C@H]2[C@H](O[C@H]3C#C/C=C\C#C[C@]4(O)CC(=O)C(NC(=O)OC)=C3/C4=C\CSSC(C)(C)CC(=O)O)O[C@H](C)[C@@H](NO[C@H]3C[C@H](O)[C@H](SC(=O)c4c(C)c(I)c(O[C@@H]5O[C@@H](C)[C@H](O)[C@@H](OC)[C@H]5O)c(OC)c4OC)[C@@H](C)O3)[C@@H]2O)C[C@@H]1OC` [Example P32], the pIC50 is 11.40 in experiment [1]; 10.82 in experiment [2]; 10.89 in experiment [5]; 10.42 in experiment [6]; 11.40 in experiment [7]; 11.52 in experiment [8].

In the case of `CCN[C@H]1CO[C@@H](O[C@H]2[C@H](O[C@H]3C#C/C=C\C#C[C@]4(O)CC(=O)C(NC(=O)OC)=C3/C4=C\CSSC(C)(C)[C@H](N)C(=O)O)O[C@H](C)[C@@H](NO[C@H]3C[C@H](O)[C@H](SC(=O)c4c(C)c(I)c(O[C@@H]5O[C@@H](C)[C@H](O)[C@@H](OC)[C@H]5O)c(OC)c4OC)[C@@H](C)O3)[C@@H]2O)C[C@@H]1OC` [Example P33], the negative logarithm of the IC50 (pIC50) in experiment [1] was 9.58; in experiment [2], 8.78; in experiment [5], 8.82; in experiment [6], 8.96; in experiment [7], 9.41; in experiment [8], 9.69.

Take `CCN[C@H]1CO[C@@H](O[C@H]2[C@H](O[C@H]3C#C/C=C\C#C[C@]4(O)CC(=O)C(NC(=O)OC)=C3/C4=C\CSSC(C)(C)CCNC(=O)[C@H](CCCNC(N)=O)NC(=O)[C@@H](NC(C)=O)C(C)C)O[C@H](C)[C@@H](NO[C@H]3C[C@H](O)[C@H](SC(=O)c4c(C)c(I)c(O[C@@H]5O[C@@H](C)[C@H](O)[C@@H](OC)[C@H]5O)c(OC)c4OC)[C@@H](C)O3)[C@@H]2O)C[C@@H]1OC` [Example P35]: the pIC50 is 8.68 in experiment [1]; 7.83 in experiment [2]; 8.63 in experiment [5]; 8.13 in experiment [6]; 8.43 in experiment [7]; 8.65 in experiment [8].

For the compound `CCN[C@H]1CO[C@@H](O[C@H]2[C@H](O[C@H]3C#C/C=C\C#C[C@]4(O)CC(=O)C(NC(=O)OC)=C3/C4=C\CSSC(C)(C)CNCCOc3ccccc3)O[C@H](C)[C@@H](NO[C@H]3C[C@H](O)[C@H](SC(=O)c4c(C)c(I)c(O[C@@H]5O[C@@H](C)[C@H](O)[C@@H](OC)[C@H]5O)c(OC)c4OC)[C@@H](C)O3)[C@@H]2O)C[C@@H]1OC` [Example P36], the negative logarithm of the IC50 (pIC50) in experiment [1] is 8.95; in experiment [2], 8.21; in experiment [5], 8.41; in experiment [6], 8.16; in experiment [7] it was 8.89; in experiment [8], 9.06.

`CCN(C(=O)Nc1ccc(CNC(=O)OCC2c3ccccc3-c3ccccc32)cc1)[C@H]1CO[C@@H](O[C@H]2[C@H](O[C@H]3C#C/C=C\C#C[C@]4(O)CC(=O)C(NC(=O)OC)=C3/C4=C\CSSC(C)(C)C)O[C@H](C)[C@@H](NO[C@H]3C[C@H](O)[C@H](SC(=O)c4c(C)c(I)c(O[C@@H]5O[C@@H](C)[C@H](O)[C@@H](OC)[C@H]5O)c(OC)c4OC)[C@@H](C)O3)[C@@H]2O)C[C@@H]1OC` [Example P49]: the negative-log IC50 (pIC50) in experiment [1] is 11.70; in experiment [2], 11.15; in experiment [5] it was over 10.00; in experiment [6], 10.29; in experiment [7], 11.22; in experiment [8] it was 11.52.
